From ChEMBL document CHEMBL2346592, “Arylglycine derivatives as potent transient receptor potential melastatin 8 (TRPM8) antagonists” (Bioorg Med Chem Lett, 2013)

What was measured:
[1] = target: Transient receptor potential M8 protein (Canis lupus familiaris, UniProt Q1A7N1); experiment: Antagonist activity at dog TRPM8 expressed in HEK293 cells assessed as inhibition of icilin-induced calcium influx incubated for 5 mins prior to icilin induction measured after 5 mins by fluorescence assay; assay type: cell-based
[2] = tested on: Rattus norvegicus; experiment: Anti-cold hypersensitive activity in rat assessed as inhibition of icilin-induced wet-dog shaking at 30 mg/kg, po measured for 10 mins relative to control; assay type: functional

Transient receptor potential M8 protein, sequence (Q1A7N1 whole entry): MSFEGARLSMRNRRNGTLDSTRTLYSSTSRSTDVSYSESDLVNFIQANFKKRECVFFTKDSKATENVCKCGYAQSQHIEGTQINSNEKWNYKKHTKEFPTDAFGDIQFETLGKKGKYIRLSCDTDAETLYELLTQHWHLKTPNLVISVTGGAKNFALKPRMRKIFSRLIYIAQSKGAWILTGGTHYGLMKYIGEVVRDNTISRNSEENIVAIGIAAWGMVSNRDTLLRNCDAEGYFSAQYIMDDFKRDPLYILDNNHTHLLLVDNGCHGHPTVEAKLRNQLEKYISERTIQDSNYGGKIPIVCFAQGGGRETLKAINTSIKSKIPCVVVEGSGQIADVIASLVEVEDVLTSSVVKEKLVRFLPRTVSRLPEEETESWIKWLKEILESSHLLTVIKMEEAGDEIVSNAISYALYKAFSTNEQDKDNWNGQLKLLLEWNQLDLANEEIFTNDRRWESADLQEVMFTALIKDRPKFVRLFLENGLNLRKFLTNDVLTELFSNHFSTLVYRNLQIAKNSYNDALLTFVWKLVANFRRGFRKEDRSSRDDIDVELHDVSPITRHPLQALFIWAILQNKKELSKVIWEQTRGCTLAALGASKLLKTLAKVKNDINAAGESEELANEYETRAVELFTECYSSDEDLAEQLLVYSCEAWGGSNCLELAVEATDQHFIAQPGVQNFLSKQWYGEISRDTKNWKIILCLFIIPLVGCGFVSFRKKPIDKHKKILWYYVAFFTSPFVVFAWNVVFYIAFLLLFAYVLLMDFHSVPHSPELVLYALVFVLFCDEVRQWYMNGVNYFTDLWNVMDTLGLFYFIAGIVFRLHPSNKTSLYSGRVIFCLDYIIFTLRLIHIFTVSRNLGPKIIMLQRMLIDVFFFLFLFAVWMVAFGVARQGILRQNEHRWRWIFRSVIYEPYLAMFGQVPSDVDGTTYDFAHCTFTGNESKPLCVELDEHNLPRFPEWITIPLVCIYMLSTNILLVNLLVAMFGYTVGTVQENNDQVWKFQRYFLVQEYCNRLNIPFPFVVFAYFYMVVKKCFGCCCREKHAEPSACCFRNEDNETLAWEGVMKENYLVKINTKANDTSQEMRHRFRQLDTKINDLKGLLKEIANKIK

| Structure (SMILES) | IC50 [1] | inhibition in vivo at 30 mg/kg [2] |
| --- | --- | --- |
| O=C(O)c1ccc(C2CCCN2C(=O)C(Nc2ccccc2F)c2cc3ccccc3s2)cc1 (racemic) | 41 nM |  |
| O=C([C@@H](Nc1ccccc1F)c1ccc(C(F)(F)F)cc1)N1CCC[C@H]1c1ccccc1F | 6 nM | 99% |
| O=C(C(Nc1ccccc1F)c1ccc(-c2ccncc2)cc1)N1CCCC1c1ccccc1F (racemic) | 25 nM |  |
| O=C(C(Nc1ccccc1)c1ccc(C(F)(F)F)cc1)N1CCC[C@@H]1c1ccccc1Cl (mixture of isomers) | 168 nM |  |
| O=C(C(Nc1ccccc1F)c1ccc(C(F)(F)F)cc1)N1CCC[C@@H]1c1ccccc1 (stereo partly drawn) | 43 nM |  |
| O=C(C(Nc1ccccc1F)c1ccc(C(F)(F)F)cc1)N1CCC[C@H]1c1ccccc1 (mixture of isomers) | 5 nM | 56% |
| O=C(C(Nc1ccccc1F)c1cc2ccccc2s1)N1CCC[C@H]1c1ccccc1F (mixture of isomers) | 3 nM |  |
| O=C([C@H](Nc1ccccc1F)c1ccc(C(F)(F)F)cc1)N1CCC[C@H]1c1ccccc1F | 45 nM |  |
| O=C(O)c1ccc(-c2ccc(C(Nc3ccccc3F)C(=O)N3CCC[C@H]3c3ccccc3F)cc2)cc1 (mixture of isomers) | 56 nM |  |
| O=C(C(Nc1ccccc1F)c1ccc(C(F)(F)F)cc1)N1CCCC1c1ccccc1Cl (racemic) | 11 nM |  |
| O=C(C(Nc1ccccc1F)c1ccc(Br)cc1)N1CCC[C@H]1c1ccccc1F (mixture of isomers) | 9 nM |  |
| O=C(O)c1cccc(C2CCCN2C(=O)C(Nc2ccccc2F)c2ccc(C(F)(F)F)cc2)c1 (racemic) | 40 nM |  |
| O=C(C(Nc1ccccc1F)c1ccc(C(F)(F)F)cc1)N1CCC[C@H]1c1ccccc1Cl (mixture of isomers) | 17 nM | 79% |
| O=C(C(Nc1ccccc1F)c1ccc(C(F)(F)F)cc1)N1CCC[C@H]1c1ccccc1F (mixture of isomers) | 8 nM | 63% |
| O=C(C(Nc1ccccc1)c1ccc(C(F)(F)F)cc1)N1CCC[C@H]1c1ccccc1Cl (mixture of isomers) | 41 nM |  |
| O=C(C(Nc1ccccc1F)c1ccc(C(F)(F)F)cc1)N1CCCC1c1ccccc1F (racemic) | 7 nM |  |
| O=C(C(Nc1ccccc1F)c1ccc(C(F)(F)F)cc1)N1CCC[C@@H]1c1ccccc1F (mixture of isomers) | 44 nM |  |
| O=C(C(Nc1ccccc1F)c1ccc(-c2cccnc2)cc1)N1CCC[C@H]1c1ccccc1F (mixture of isomers) | 7 nM | -13% |
